Test results: patent US10369187B2, “Peptide regulators of JNK family kinases” (Vanderbilt University, priority 2017, dated 2019)

Assays:
[1] = test system: ARR3-dependent activation of the JNK pathway; assay: Suppression of ARR3-dependent JNK activation (peptide co-expressed with full-length ARR3, Western blot); assay type: cell-based; details: for JNK activity on co-expression with full-length ARR3, comparison of shorter peptides: Western blot
Excerpt: FIG. 9. The ARR3-derived T1A15 peptide is capable of reducing ARR3-dependent activation of the JNK pathway. (A) Dose-dependent action of Venus-T1A15 on the JNK activity. Upper blot panel—T1A15 was expressed at increasing concentration with full-length ARR3. Cells expressing GFP (negative control) and full-length ARR3 only (positive control) are shown for comparison. Note the reduced activity of HA-JNK3α2 expressed in the cells as well as that of endogenous INK isoforms (p54 and p46 bands). The lower panels show corresponding expression of GFP, full-length ARR3 and increasing concentrations of Venus-T1A15. (B) Comparison of the activity of shorter ARR3-derived peptides. Three shorter peptides, T1A15, T1A14, and T1A13, were co-expressed with full-length ARR3, and the INK activity assessed by western blot.
First, the action of arrestin-3-derived peptides expressed in cultured cells on JNK3 activity was investigated.

WT hemiparkinsonian mice = assay: L-DOPA-induced rotations in hemiparkinsonian WT mice; assay type: in vivo, mouse; details: peptide expressed under CMV promoter in striatal neurons, versus GFP
Excerpt: FIG. 11. Inhibition of L-DOPA-induced rotations in WT mice by ARR3-derived peptide T1A15 inhibiting JNK3. The arrestin-3-derived peptide T1A15 expressed under CMV promoter in striatal neurons inhibited rotations in WT mice as compared to WT mice expressing GFP.
(§1) The mice were rendered hemiparkinsonian by the unilateral injection of the dopaminergic neurotoxin 6-hydroxydopamine. Such animals develop contralateral rotations of increasing frequency in response to repeated administration of L-DOPA. ARR3 knockout mice (KO) have lower propensity than wild type (WT) animals to such rotations.

[2] = test system: ASK1-MKK4/7-JNK3 signaling cascade; assay: In cell JNK3 activation assay (co-expression with HA-ASK1 and HA-JNK3α2, phospho-JNK Western blot); assay type: cell-based, African green monkey; details: for in cell JNK3α2 activation (phospho-JNK3 densitometry): Example 2, YFP/Venus constructs with HA-ASK1, HA-JNK3α2 in COS7 cells; for JNK3 phosphorylation in cells, HA-tagged arrestins and separated domains: co-expressed with ASK1 and JNK3 in COS7 cells
Description: COS-7 African green monkey cells were maintained in DMEM supplemented with 10% heat-inactivated FBS (Invitrogen), penicillin, and streptomycin at 37° C. in a humidified incubator with 5% CO2. The cells were plated at 80-90% confluence and transfected using Lipofectamine 2000 (Invitrogen) according to the manufacturer's instructions. Cells were used 48 h post-transfection and serum-starved overnight before experiments.
COS-7 cells were incubated with phosphatase inhibitors (50 mM NaF and 10 mM Na3VO4) in serum-free medium for 15 min at 37° C.; washed with cold PBS; and lysed with SDS lysis buffer containing 1% SDS, 10 mM Tris (pH7.4), 10 mM NaF, 100 μM Na3VO4, 2 mM EDTA, 2 mM benzamidine and 1 mM PMSF. JNKs activity was assayed by Western blotting using an antibody specific for phosphorylated JNK to detect phosphorylated (active) JNKs^17,20,23. Whole cell lysates were boiled for 5 min and centrifuged at 10,000×g for 10 min, and the supernatants were used for Western blotting. Protein was measured using the Bio-Rad Coomassie Blue assay. The proteins were resolved on 8% SD S-PAGE and transferred to PVDF membrane (Millipore, Bedford, Mass.). Blots were incubated with the primary antibodies (Cell Signaling Technology, Inc) anti-phospho-JNK, anti-JNK, anti-HA (6E2) (1:1000 to 1:5000), followed by appropriate HRP-conjugated secondary antibodies. Protein bands were detected by enhanced chemiluminescence (ECL, Pierce), followed by exposure to x-ray film. To quantify phospho-JNKs, serial dilutions of anisomycin (1 μg/ml)-stimulated HEK-A cell lysates were used to ensure that all samples were in linear range. The values for these proteins are expressed in arbitrary units.
The JNK3 activation was next tested in cells (See FIG. 7). COS7 cells were transfected with HA-ASK1, HA-JNK3α2, and YFP-arrestin constructs to measure in cell JNK3α2 activation. Phospho-JNK3 is shown as the uppermost band in the Western analysis, and was analyzed by densitometric quantification using Quantity One software (quantification in bottom panel). […] The data were statistically analyzed by ANOVA with protein as the main factor. Significance of the difference from control (p values) is indicated.
In Cell JNK3 Activation Assay COS7 African green monkey cells were sustained in DMEM solution containing 10% heat-inactivated FBS (Invitrogen), penicillin, and streptomycin at 37° C. and 5% CO2. Cells were transfected at 90-100% confluency in 6-well plates with pcDNA3-HA-ASK1 (0.4 ug), pcDNA3-HA-JNK3α2 (0.2 ug), and pcDNA3-Venus arrestin constructs (0.2-0.6 ug) at a 1:2 ratio of DNA:Lipofectamine 2000 (Invitrogen). At 48 hrs post-transfection, the cells were incubated with phosphatase inhibitors (20 mM NaF and 1 mM Na3VO4) in PBS for 15 mins, washed twice with cold PBS, and lysed using 50 mM Tris (pH 7.8), 2 mM EDTA, 250 mM NaCl, 10% Glycerol, 0.5% NP-40, 2 mM benzamide, and 1 mM PMSF. Protein concentration was measured using the Bio-Rad Quick Start™ Bovine Serum Albumin (BSA) Standard Set. The proteins were subjected to 10% SDS-PAGE and transferred to PVDF membrane (Millipore, Bedford, Mass.). Membranes were incubated with respective primary antibodies (Cell Signaling Technology, Inc.) anti-ASK1 (#3762S), anti-phospho-JNK (#9251), anti-SAPK/JNK (#9252P), anti-GST (#2625), or anti-HA (#3724), followed by the appropriate HRP-conjugated secondary antibodies. Bands were detected by x-ray film using enhanced chemiluminescence (ECL, Pierce) and quantification was done using the software Quantity One (BioRad).

[3] = test system: hemiparkinsonian ARR3 KO mice; assay: L-DOPA-induced rotations in hemiparkinsonian ARR3 KO mice; assay type: in vivo, mouse
Description: FIG. 10. Rescue of L-DOPA-induced rotations in ARR3 KO mice by T1A16. Data are shown as means±S.E.M. Mice were pre-tested for L-DOPA-induced rotations before receiving lentiviruses. Respective lentiviruses were injected into the dorsolateral striatum of ARR3 KO mice. WT mice received GFP. […] In contrast, selective expression of T1A16 in striatopallidal MSNs under control of the enkephaline (ENK) promoter was ineffective. […] Significance levels are by Bonferroni post hoc test across all testing sessions.
Next, arrestin-3-derived peptides T1A16 and T1A15 were investigated for activity in the animal model of L-DOPA-induced dyskinesia. It was shown that the peptides expressed as Venus fusions in the motor striatum of hemiparkinsonian mice via lentivirus-mediated gene transfer modulate the manifestations of L-DOPA-induced dyskinesia (LID). The mice lacking ARR3 have reduced LID, and restoration of ARR3 into the motor striatum via lentivirus-mediated gene transfer rescues LID in these animals.
as §1

MKK7-JNK3 module = MKK7-JNK3 module (Homo sapiens, UniProt O14733+P53779); details: previously found, reference 20; cited from earlier work
MKK7-JNK3 module, sequence (O14733 whole entry): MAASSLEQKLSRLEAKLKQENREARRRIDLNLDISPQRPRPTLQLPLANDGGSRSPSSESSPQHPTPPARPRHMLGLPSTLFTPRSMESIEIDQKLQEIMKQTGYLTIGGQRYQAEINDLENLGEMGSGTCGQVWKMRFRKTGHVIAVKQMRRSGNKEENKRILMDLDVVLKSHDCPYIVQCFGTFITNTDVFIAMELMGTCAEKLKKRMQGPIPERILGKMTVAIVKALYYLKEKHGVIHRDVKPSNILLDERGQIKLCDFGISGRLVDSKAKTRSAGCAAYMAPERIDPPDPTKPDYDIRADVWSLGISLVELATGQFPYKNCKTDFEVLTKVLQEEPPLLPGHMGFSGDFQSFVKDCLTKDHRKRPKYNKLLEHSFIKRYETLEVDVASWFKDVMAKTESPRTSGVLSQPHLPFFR
MKK7-JNK3 module, sequence (P53779 whole entry): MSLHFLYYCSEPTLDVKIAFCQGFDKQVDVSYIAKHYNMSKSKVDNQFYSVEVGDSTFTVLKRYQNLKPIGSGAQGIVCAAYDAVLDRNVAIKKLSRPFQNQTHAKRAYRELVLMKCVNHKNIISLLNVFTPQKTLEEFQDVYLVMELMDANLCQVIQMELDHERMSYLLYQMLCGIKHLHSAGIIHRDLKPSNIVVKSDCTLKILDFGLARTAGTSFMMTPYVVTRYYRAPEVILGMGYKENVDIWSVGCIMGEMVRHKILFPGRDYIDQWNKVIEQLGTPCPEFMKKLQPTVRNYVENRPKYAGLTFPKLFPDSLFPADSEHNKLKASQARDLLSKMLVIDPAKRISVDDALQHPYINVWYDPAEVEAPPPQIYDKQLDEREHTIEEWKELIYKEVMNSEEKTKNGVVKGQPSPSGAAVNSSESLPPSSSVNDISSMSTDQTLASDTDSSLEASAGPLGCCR

MKK4 = biological target: T1, MKK4 (Homo sapiens, UniProt P45985); assay: MBP pull-down of purified MKK4; assay type: binding; details: MBP pull-down, purified proteins
T1 sequence (P45985 1-399): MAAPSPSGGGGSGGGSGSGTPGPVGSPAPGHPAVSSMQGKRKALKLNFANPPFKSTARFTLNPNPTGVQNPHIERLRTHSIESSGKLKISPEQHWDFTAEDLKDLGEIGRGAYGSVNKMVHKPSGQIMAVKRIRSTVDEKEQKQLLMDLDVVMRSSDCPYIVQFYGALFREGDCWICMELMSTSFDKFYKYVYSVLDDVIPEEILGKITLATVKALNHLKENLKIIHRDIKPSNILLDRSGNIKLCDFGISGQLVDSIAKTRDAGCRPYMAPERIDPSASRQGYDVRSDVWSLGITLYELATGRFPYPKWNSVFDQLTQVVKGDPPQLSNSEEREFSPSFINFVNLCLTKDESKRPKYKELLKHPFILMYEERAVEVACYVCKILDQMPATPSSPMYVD
Description: T1A was expressed in E. coli as an MBP-fusion and purified it on an amylose column^23. The ability of purified GST-MKK4 or GST-MKK7 (FIG. 1A) to bind MBP-T1A immobilized on an amylose column was tested in an in vitro pull-down assay, where MBP and MBP-arrestin-3 served as negative and positive controls, respectively (FIG. 1B). MBP-T1A, but not control MBP, effectively retained both kinases (FIG. 1B). […] Next, it was tested whether T1A binds the uppermost kinase in the cascade, ASK1. Because ASK1 is not available in purified form, HA-tagged ASK1 and YFP-tagged T1A (using YFP as a control) were co-expressed in COS7 cells, lysed the cells, and immunoprecipitated YFP constructs with anti-GFP antibody (FIG. 1C).
To make MBP-fusions containing arrestin-2/3 elements, the cDNAs encoding arrestin fragments were subcloned into pMal-p2T (generous gift from Dr. Keiji Tanaka, Tokyo Institute of Medical Science) between Eco RI and Xho I sites in frame with MBP, as described^23. MBP-Arr3 (full-length arrestin-3) was created by subcloning the corresponding cDNA into pMal-p2T between Eco RI and Not I sites^23. All MBP-arrestin-3 fusion proteins contained the same […] (SEQ ID NO:29) linker between MBP and arrestin-3 or its fragments. The MBP protein used as negative control was purified using empty pMal-p2T vector containing the same linker with 10 additional residues: […] (SEQ ID NO:30). MBP fusions were purified, as described^23. MBP pull-down was performed, as described^23. Briefly, Indicated MBP fusions (10-30 μg in 50 μL 20 mM Tris/150 mM NaCl) were immobilized on amylose resin (25 μL, 50% slurry, New England Biolabs) for 1 h at 4° C. with slight rotation. Purified, as described^40, MKK4/7 (10 μg in 50 μL 20 mM Tris/150 mM NaCl) were added to the immobilized MBP fusions and rotated gently for 2 h at 4° C. Samples were transferred to centrifuge filters (Durapore®-PVDF-0.65 μm), washed three times with 50 mM HEPES-Na, pH 7.3, 150 mM NaCl. The proteins were eluted by 100 μl of elution buffer (wash buffer containing 50 mM maltose) by gentle rotation for 5 min at 4° C. Eluates were analyzed by SDS-PAGE and Western blotting.

MKK4-JNK3 module = MKK4-JNK3 module (Homo sapiens, UniProt P45985+P53779); details: previously found, reference 20; cited from earlier work
MKK4-JNK3 module, sequence (P53779 whole entry, one chain of several): as the sequence (P53779 whole entry) above

Molecule: KKSSPNCKLTVYLG (bovine) [T1A14]
- JNK activity on co-expression with full-length ARR3, comparison of shorter peptides [1]: marginally effective

Molecule: TRVFKKSSPNCKLTV (bovine) [T1A15]
- L-DOPA-induced rotations in WT mice (WT hemiparkinsonian mice): able to suppress the rotational behavior
- in cell JNK3α2 activation (phospho-JNK3 densitometry) [2]: inhibit JNK3 activation
- ARR3-dependent JNK activation at increasing peptide expression ([1]; Venus-T1A15 co-expressed with full-length ARR3): reducing arrestin-3-dependent activation of JNK3 as well as other JNK isoforms in a dose dependent manner
- JNK activity on co-expression with full-length ARR3, comparison of shorter peptides [1]: effectively suppressed

Molecule: VFKKSSPNCKLTV (bovine) [T1A13]
- JNK activity on co-expression with full-length ARR3, comparison of shorter peptides [1]: no effect

Molecule: VFKKSSPNCKLTVYLG (bovine) [T1A16]
- in cell JNK3α2 activation (phospho-JNK3 densitometry) [2]: facilitates JNK3 activation
- JNK3 activation at increasing peptide expression ([2]; Example 3, T1A16-Venus expressed in Cos7 cells): dose-dependently activates JNK3
- L-DOPA-induced rotations in ARR3 KO mice, expression in striatonigral MSNs ([3]; lentivirus, dynorphine (DYN) promoter): fully rescued rotations in A3KO mice
- L-DOPA-induced rotations in ARR3 KO mice, expression in striatopallidal MSNs ([3]; lentivirus, enkephaline (ENK) promoter): ineffective
- L-DOPA-induced rotations in ARR3 KO mice ([3]; peptide expressed in striatum via lentivirus, 6-hydroxydopamine lesion): fully restores rotations in ARR3 KO mice to the level of that in WT mice

Molecule: arrestin-3: full-length arrestin-3 (bovine) protein, scaffold of ASK1-MKK4/7-JNK3 cascade
- optimal concentration for scaffolding MKK7-JNK3 module (MKK7-JNK3 module): ~6 µM
- interaction with MKK4 compared with MKK7 (MKK4): stronger interaction with MKK4 than with MKK7
- in cell JNK3α2 activation (phospho-JNK3 densitometry) [2]: facilitates JNK3 activation
- JNK3 phosphorylation in cells, YFP fusions ([2]; YFP fusions co-expressed with JNK3 and ASK1 in COS7 cells): increased the level of JNK3 phosphorylation
- JNK3 phosphorylation in cells, HA-tagged arrestins and separated domains [2]: significantly increases JNK3 phosphorylation in cells
- optimal concentration for scaffolding MKK4-JNK3 module (MKK4-JNK3 module): ~0.6 µM
- JNK activity on co-expression with full-length ARR3, comparison of shorter peptides [1]: induced the JNK activation

B1: arrestin-2: full-length non-visual arrestin-2 protein, does not promote JNK3 activation (protein, UniProt P17870 1-418, looked up)
chain: MGDKGTRVFKKASPNGKLTVYLGKRDFVDHIDLVEPVDGVVLVDPEYLKERRVYVTLTCAFRYGREDLDVLGLTFRKDLFVANVQSFPPAPEDKKPLTRLQERLIKKLGEHAYPFTFEIPPNLPCSVTLQPGPEDTGKACGVDYEVKAFCAENLEEKIHKRNSVRLVIRKVQYAPERPGPQPTAETTRQFLMSDKPLHLEASLDKEIYYHGEPISVNVHVTNNTNKTVKKIKISVRQYADICLFNTAQYKCPVAMEEADDTVAPSSTFCKVYTLTPFLANNREKRGLALDGKLKHEDTNLASSTLLREGANREILGIIVSYKVKVKLVVSRGGLLGDLASSDVAVELPFTLMHPKPKEEPPHREVPEHETPVDTNLIELDTNDDDIVFEDFARQRLKGMKDDKEEEEDGTGSPRLNDR
modifications: full-length
- JNK3 phosphorylation in cells, HA-tagged arrestins and separated domains [2]: does not
